How the values were obtained:
IL-6 = IL-6 in supernatants of LPS-primed, nigericin-treated THP1 macrophages, Hu IL-6 AlphaLISA; type: cell-based; conditions: Homo sapiens, THP-1, PMA-differentiated, 1 hr compound, Nigericin 6.7 uM 3 hrs, IL-6 in supernatant
Method: (§1) NLRP3 Inflammasome Activation and Cell Viability Assessment in THP1 Macrophages
(§2) THP1—Human acute monocytic leukemia cells were cultured (ATCC, cat #TIB-202) in Gibco RPMI-1640 medium (ThermoFisher cat #72400054) supplemented with 10% Heat Inactivated FBS at density between 3-8×10^5 viable cells/mi. The cells were then subcultured when the cell concentration reached 8×10^5 cells/mL (every 2-3 days).
(§3) The parameter wells were filled with 50 ul PBS and incubated at 37° C., 5% CO2 for 48 hrs.
(§4) After 48 hrs incubation, the PMA containing media was removed, and changed for 40 ul/well of fresh DMEM, 10% FBS, 1× GlutaMax and incubated at 37° C., 5% CO2 for 24 hrs.
(§5) The following day the cells were primed with LPS (E. coli) (Sigma, cat #L3129) […] in DMEM, 10% FBS, 1× GlutaMax for 3 hrs at 37° C., 5% CO2.
(§6) Following the LPS priming step, the cells were treated with compounds at 10 uM top final concentration, 1:4 dilution, 8 times: (10 uM, 2.5 uM, 0.625 uM, 0.156 uM, 0.039 uM, 0.0097 uM, 0.0024 uM, 0.0006 uM). DMSO was used as a vehicle control, and MCC950 (InvivoGen, cat #inh-mcc) was used at 1 uM as a positive control, and incubated for 1 hrs at 37° C., 5% CO2.
(§7) Following the 1 hr compound incubation, the NLRP3 inflammasome activation step was conducted by treating cells with Nigericin (InvivoGen, cat #tlrl-nig) at 6.7 uM final concentration for 3 hrs at 37° C., 5% CO2.
(§8) Thereafter, 30 ul samples of cells' supernatants were collected for cytokine analysis which was conducted on Hu IL-1β AlphaLISA (Perkin Elmer, cat #AL220C) and Hu IL-6 AlphaLISA (Perkin Elmer, cat #AL220C). The cells' viability was assessed by performing CellTiter-Glo Luminescent Assay (Promega, cat #G7572) according to the manufacturer's protocol.

NLRP3 inflammasome = molecular target: T1, NLRP3 inflammasome (Homo sapiens, UniProt Q96P20); assay: NLRP3 inflammasome activation in LPS-primed, nigericin-activated THP1 macrophages, IL-1β AlphaLISA; type: cell-based; conditions: PMA-differentiated, 1 hr compound, Nigericin 6.7 uM 3 hrs, IL-1β in supernatant
T1 construct: host or cells: THP1 human acute monocytic leukemia cells, PMA-differentiated, LPS-primed
Method: as §1, §2, §3, §4, §5, §6, §7, §8

T1 sequence (Q96P20 whole entry): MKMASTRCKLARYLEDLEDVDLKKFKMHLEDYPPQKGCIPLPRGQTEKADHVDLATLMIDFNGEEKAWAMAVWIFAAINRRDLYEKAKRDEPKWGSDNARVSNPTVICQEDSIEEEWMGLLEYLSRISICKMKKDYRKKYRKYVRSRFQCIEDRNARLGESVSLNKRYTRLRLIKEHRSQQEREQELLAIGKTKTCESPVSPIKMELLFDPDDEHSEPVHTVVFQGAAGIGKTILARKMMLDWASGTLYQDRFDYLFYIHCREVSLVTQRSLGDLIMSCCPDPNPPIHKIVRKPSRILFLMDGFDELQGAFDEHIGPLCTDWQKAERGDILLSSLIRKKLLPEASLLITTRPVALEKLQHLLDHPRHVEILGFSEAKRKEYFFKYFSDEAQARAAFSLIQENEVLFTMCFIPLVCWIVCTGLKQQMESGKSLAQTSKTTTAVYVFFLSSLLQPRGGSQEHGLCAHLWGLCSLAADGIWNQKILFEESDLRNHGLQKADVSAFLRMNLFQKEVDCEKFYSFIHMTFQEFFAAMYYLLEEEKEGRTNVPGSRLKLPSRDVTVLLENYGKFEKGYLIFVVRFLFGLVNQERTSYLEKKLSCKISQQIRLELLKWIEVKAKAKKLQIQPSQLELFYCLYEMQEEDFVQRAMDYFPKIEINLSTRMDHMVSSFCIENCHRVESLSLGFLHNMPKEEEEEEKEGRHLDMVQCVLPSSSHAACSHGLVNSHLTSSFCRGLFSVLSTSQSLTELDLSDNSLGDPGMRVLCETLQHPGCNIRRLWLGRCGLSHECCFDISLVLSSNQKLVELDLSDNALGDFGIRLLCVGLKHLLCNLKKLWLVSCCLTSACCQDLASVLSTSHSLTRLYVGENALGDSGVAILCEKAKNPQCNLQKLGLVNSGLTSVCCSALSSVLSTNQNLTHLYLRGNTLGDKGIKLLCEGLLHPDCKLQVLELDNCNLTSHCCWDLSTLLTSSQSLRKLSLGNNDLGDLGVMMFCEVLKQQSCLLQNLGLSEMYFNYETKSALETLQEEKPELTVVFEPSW

| Compound | IC50 (IL-6) [µM] | IC50 (NLRP3 inflammasome) [µM] |
| --- | --- | --- |
| CN1CCC[C@@H](Nc2nnc(-c3ccc(C(F)(F)F)cc3)c3[nH]ccc23)C1 (single isomer, unassigned) [Compound 2] | ≥ 10 | 0.1 to 0.5 |
| CN1CCC[C@@H](N(C)c2nnc(-c3ccccc3O)c3cc[nH]c23)C1 (single isomer, unassigned) [Compound 24] | 5 to 10 | 0.1 to 0.5 |
| CN1CCC[C@@H](N(C)c2nnc(-c3ccccc3O)c3[nH]ccc23)C1 (single isomer, unassigned) [Compound 68] | 5 to 10 | ≥ 10 |
| Cc1cc(C(F)(F)F)ccc1-c1nnc(N[C@@H]2CCCN(C)C2)c2cc[nH]c12 [Compound 3] | ≥ 10 | 0.5 to 1 |
| CN1CCC[C@@H](Nc2nnc(-c3ccc(F)cc3O)c3[nH]ccc23)C1 [Compound 7] | ≥ 10 | 0.1 to 0.5 |
| CN1CCC[C@@H](Nc2nnc(-c3ccccc3O)c3[nH]ccc23)C1 [Compound 8] | ≥ 10 | 0.1 to 0.5 |
| CN1CCC[C@@H](Nc2nnc(-c3ccc(F)cc3)c3[nH]ccc23)C1 [Compound 9] | ≥ 10 | ≥ 10 |
| CN1CCC[C@@H](Nc2nnc(-c3ccc(Cl)cc3)c3[nH]ccc23)C1 [Compound 11] | ≥ 10 | 1 to 10 |
| CN1CCC[C@@H](Nc2nnc(-c3ccccc3C(F)F)c3cc[nH]c23)C1 [Compound 12] | ≥ 10 | 0.1 to 0.5 |
| CN1CCC[C@@H](Nc2nnc(-c3ccccc3C(F)F)c3[nH]ccc23)C1 [Compound 13] | ≥ 10 | ≥ 10 |
| CN1CCC[C@@H](Nc2nnc(-c3ccccc3)c3cc[nH]c23)C1 [Compound 15] | – | 0.5 to 1 |
| CN1CCC[C@@H](N(C)c2nnc(-c3ccccc3O)c3ccn(C)c23)C1 [Compound 18] | 1 to 5 | 1 to 10 |
| CN1C[C@H](Nc2nnc(-c3ccc(C(F)(F)F)cc3)c3cc[nH]c23)CC(F)(F)C1 [Compound 19] | 5 to 10 | 0.1 to 0.5 |
| CN1CCC[C@@H](Nc2nnc(-c3ccc(C(F)(F)F)cc3)c3nc[nH]c23)C1 [Compound 20] | ≥ 10 | 0.5 to 1 |
| Cc1cc(-c2nnc(N[C@@H]3CCCN(C)C3)c3[nH]ccc23)ccc1C(F)(F)F [Compound 23] | 5 to 10 | 1 to 10 |
| CN1CCC[C@@H](N(C)c2nnc(-c3ccc(C(F)(F)F)cc3)c3cc[nH]c23)C1 [Compound 25] | ≥ 10 | 0.1 to 0.5 |
| CN1CCC[C@@H](N(C)c2nnc(-c3ccc(C(F)(F)F)cc3)c3ccn(C)c23)C1 [Compound 27, (R)—N,1-dimethyl-N-(1-methylpiperidin-3-yl)-4-(4-(trifluoromethyl)phenyl)-1H-pyrrolo[2,3-d]pyridazin-7-amine] | ≥ 10 | 1 to 10 |
| CN1CCC[C@@H](Nc2nnc(-c3ccc(C(F)(F)F)cc3)c3c2ncn3C)C1 [Compound 29] | ≥ 10 | 0.5 to 1 |
| CN1CCC[C@@H](Nc2nnc(-c3ccc(C(F)(F)F)cc3)c3ncn(C)c23)C1 [Compound 30] | ≥ 10 | 1 to 10 |
| CN1CCC[C@@H](Oc2nnc(-c3ccc(C(F)(F)F)cc3)c3cc[nH]c23)C1 [Compound 39] | 5 to 10 | 0.1 to 0.5 |

| Compound | IC50 (IL-6) [µM] | IC50 (NLRP3 inflammasome) [µM] |
| --- | --- | --- |
| CN1CCC[C@@H](Nc2nnc(-c3ccc(C(F)(F)F)cc3)c3occc23)C1 [Compound 54] | 1 to 5 | 0.1 to 0.5 |
| CN1CCC[C@@H](Nc2nnc(-c3ccc(C(F)(F)F)cc3)c3c2OCC3)C1 [Compound 58] | ≥ 10 | 0.1 to 0.5 |
| CN1CCC[C@@H](Nc2nnc(-c3ccc(C(F)(F)F)cc3)c3c2CCO3)C1 [Compound 59] | ≥ 10 | ≥ 10 |
| CN1CCC[C@@H](Nc2nnc(-c3ccc(C(F)(F)F)cc3)c3cnsc23)C1 [Compound 63, (R)—N-(1-methylpiperidin-3-yl)-4-(4-(trifluoromethyl)phenyl)isothiazolo[4,5-d]pyridazin-7-amine] | 5 to 10 | 0.01 to 0.1 |
| CN1CCC[C@@H](Nc2nnc(-c3ccc(C(F)(F)F)cc3)c3sncc23)C1 [Compound 64] | 5 to 10 | 0.01 to 0.1 |
| Cc1cc(-c2nnc(N[C@@H]3CCCN(C)C3)c3cc[nH]c23)ccc1C(F)(F)F [Compound 66] | ≥ 10 | ≥ 10 |
| CN1CCC[C@@H](Nc2nnc(-c3ccc(C(F)(F)F)cc3)c3c2ccn3C)C1 [Compound 69] | – | 0.01 to 0.1 |
| CN1CCC[C@@H](Nc2nnc(-c3ccccc3)c3[nH]ccc23)C1 [Compound 70] | – | ≥ 10 |
| CN1CCC[C@@H](N(C)c2nnc(-c3ccc(C(F)(F)F)cc3)c3c2ccn3C)C1 [Compound 71] | ≥ 10 | 1 to 10 |
| CN1CCC[C@@H](N(C)c2nnc(-c3ccc(C(F)(F)F)cc3)c3[nH]ccc23)C1 [Compound 72] | ≥ 10 | 1 to 10 |
| Cc1c[nH]c2c(N[C@@H]3CCCN(C)C3)nnc(-c3ccc(F)cc3)c12 [Compound 73] | ≥ 10 | 0.1 to 0.5 |
| Cc1c[nH]c2c(-c3ccc(F)cc3)nnc(N[C@@H]3CCCN(C)C3)c12 [Compound 74] | ≥ 10 | ≥ 10 |
| Cc1cc2c(N[C@@H]3CCCN(C)C3)nnc(-c3ccc(C(F)(F)F)cc3)c2[nH]1 [Compound 75] | ≥ 10 | 1 to 10 |
| CN1CCC[C@@H](Nc2nnc(-c3ncc(C#N)cc3O)c3cnn(C)c23)C1 [Compound 114] | – | 0.01 to 0.1 |
| CN1CCC[C@@H](Nc2nnc(-c3ccc(C#N)cc3C(F)F)c3ccn(C)c23)C1 [Compound 120] | – | 0.1 to 0.5 |
| Cc1cc(C#N)ccc1-c1nnc(N[C@@H]2CCCN(C)C2)c2c1ccn2C [Compound 125] | – | 0.01 to 0.1 |
| CN1CCC[C@@H](Nc2nnc(-c3ncc(C#N)cc3O)c3ccn(C)c23)C1 [Compound 135] | – | ≥ 10 |
| CN1CCC[C@@H](Nc2nnc(-c3ncc(C#N)cc3Cl)c3cnn(C)c23)C1 [Compound 140] | – | 1 to 10 |
| N#Cc1ccc(-c2nnc(N[C@@H]3CCCN(CCF)C3)c3sncc23)c(O)c1 [Compound 150] | – | 0.01 to 0.1 |

Other lines, results leading:

| IC50 (IL-6) [µM] | IC50 (NLRP3 inflammasome) [µM] | Compound |
| --- | --- | --- |
| 1 to 5 | < 0.01 | CN1CCC[C@@H](Nc2nnc(-c3ccc(C(F)(F)F)cc3)c3cc[nH]c23)C1 (single isomer, unassigned) [Compound 1] |
| ≥ 10 | 0.01 to 0.1 | CN1CCC[C@@H](Nc2nnc(-c3ccccc3O)c3ccn(C)c23)C1 (single isomer, unassigned) [Compound 17] |
| ≥ 10 | 0.01 to 0.1 | CN1CCC[C@@H](Nc2nnc(-c3ccccc3O)c3c2ccn3C)C1 (single isomer, unassigned) [Compound 67] |
| 5 to 10 | < 0.01 | CN1CCC[C@@H](Nc2nnc(-c3ccc(F)cc3O)c3cc[nH]c23)C1 [Compound 4] |
| 1 to 5 | 0.01 to 0.1 | CN1CCC[C@@H](Nc2nnc(-c3ccc(F)cc3)c3cc[nH]c23)C1 [Compound 5] |
| 5 to 10 | < 0.01 | Cc1cc(C(F)(F)F)ccc1-c1nnc(N[C@@H]2CCCN(C)C2)c2[nH]ccc12 [Compound 6] |
| 1 to 5 | 0.01 to 0.1 | CN1CCC[C@@H](Nc2nnc(-c3ccc(Cl)cc3)c3cc[nH]c23)C1 [Compound 10] |
| – | < 0.01 | CN1CCC[C@@H](Nc2nnc(-c3ccccc3O)c3cc[nH]c23)C1 [Compound 14] |
| ≥ 10 | < 0.01 | Cc1cc2c(-c3ccc(C(F)(F)F)cc3)nnc(N[C@@H]3CCCN(C)C3)c2[nH]1 [Compound 21] |
| 5 to 10 | 0.01 to 0.1 | CN1CCC[C@@H](Nc2nnc(-c3ccc(C(F)(F)F)cc3)c3ccn(C)c23)C1 [Compound 26] |
| ≥ 10 | 0.01 to 0.1 | CN1CCC[C@@H](Nc2nnc(-c3ccc(C(F)(F)F)cc3)c3cnn(C)c23)C1 [Compound 31] |
| ≥ 10 | < 0.01 | CN1CCC[C@@H](Nc2nnc(-c3ccc(C(F)(F)F)cc3)c3c2cnn3C)C1 [Compound 32] |
| ≥ 10 | 0.01 to 0.1 | CN1CCC[C@@H](Nc2nnc(-c3ccc(C(F)(F)F)cc3)c3ccoc23)C1 [Compound 53] |
| ≥ 10 | 0.01 to 0.1 | CN1CCC[C@@H](Nc2nnc(-c3ccc(C(F)(F)F)cc3)c3ccsc23)C1 [Compound 61] |
| 1 to 5 | 0.01 to 0.1 | CN1CCC[C@@H](Nc2nnc(-c3ccc(C(F)(F)F)cc3)c3sccc23)C1 [Compound 62] |
| 5 to 10 | < 0.01 | CN1CCC[C@@H](Nc2nnc(-c3ccc(C(F)(F)F)cc3)c3c2CCC3)C1 [Compound 65] |
| – | < 0.01 | CN1CCC[C@@H](Nc2nnc(-c3ccc(C(F)(F)F)cc3C(F)F)c3ccn(C)c23)C1 [Compound 122] |

From US20260015357A1, “MODULATORS OF NLRP3 INFLAMMASOME AND RELATED PRODUCTS AND METHODS” (Neumora Therapeutics, Inc., priority 2022, published 2026)
